Assay type in all cases: physicochemical
The nature of data set [1]: Recrystallization of amorphous material upon heating above Tg (DSC). As to conditions: DSC thermogram of the amorphous material, FIG. 2. The procedure: Melting point and glass transition determined on the base of compound (Ia): Sample of 2-3 mg was packed into Tzero aluminum hermetic pans with a perforated lid and heated 1° C./min to 80° C. (giving the melting point), kept isothermal for 2 min., equilibrated at −50° C., and heated 10° C./min to 110° C. (giving the glass transition of the formed amorphous solid).
Melting point and glass transition of the hydrogen fumarate of compound (Ia): Sample heated 1° C./min to 210° C. (giving the melting point), kept isothermal for 2 min., equilibrated at −50° C., and heated 10° C./min to 230° C. (giving the glass transition of the formed amorphous solid).

A short description of data set [2]: Actual glass transition temperature (Tg) of the amorphous form by DSC. Particulars: amorphous form made by melt quenching in the DSC pan, heated 10° C./min. The procedure:
(§1) The terms “actual glass transition temperature” and “calculated glass transition temperature” as used herein refers to the measured (actual) and theoretical (calculated) glass transition temperature associated with a specific compound of Formula (I) or compound of Formula (I) salt. The actual glass transition temperature is determined from the DSC thermogram for the amorphous material, which is exemplified in example 1 and depicted in FIG. 2. The calculated glass transition temperature is calculated as ⅔ of the melting temperature (in Kelvin) of the crystalline form. FIG. 1 illustrate DSC thermograms of crystalline forms of compound (Ia), from which the melting temperature can be determined. The calculation procedure for estimation of the glass transition temperature is described in example 1.
(§2) As stated in the description of the present application, it is generally recognized that the glass transition temperature can be estimated as ⅔ of the melting temperature of the crystalline material (measured in Kelvin). From the DSC thermograms in FIG. 1 (left), it is seen that the crystalline base of compound (Ia) has an endothermic peak around 60° C. corresponding to the melting of the crystals. Based on the melting temperature of the crystalline base of compound (la), the calculated glass transition temperature of the amorphous form of this compound is thus ⅔*(60° C.+273)=222 K or −51° C. […] This means that the actual measured Tg of this amorphous form is around 5° C. and not −51° C. as calculated using the Beaman Rule.
(§3) Similar experiments were performed with the hydrogen fumarate of compound (Ia). Here the calculated Tg was based on the observed endothermic peak around 203° C. corresponding to the melting of the crystal (FIG. 1—right). Consequently, the calculated Tg is ⅔ *(203° C.+273)=317 K or 44° C. The thermogram of the amorphous form is shown in FIG. 2 (right) and depicts a change in heat capacity around 66° C. corresponding to a glass transition. This means that the actual measured Tg of the amorphous hydrogen fumarate of compound (Ia) is around 66° C. and not 44° C. as calculated.
Different scanning programs are used depending on the purpose of the analysis as given in example 9. In all DSC-experiments, 2-5 mg sample is packed into Tzero aluminum hermetic pans with a perforated lid, and the measurement is performed under 50 mL/min dry nitrogen gas purge.
Melting point and glass transition determined on the base of compound (Ia): Sample of 2-3 mg was packed into Tzero aluminum hermetic pans with a perforated lid and heated 1° C./min to 80° C. (giving the melting point), kept isothermal for 2 min., equilibrated at −50° C., and heated 10° C./min to 110° C. (giving the glass transition of the formed amorphous solid). […]

Data set [3] is described as follows: Calculated glass transition temperature, 2/3 of the crystalline melting temperature in Kelvin (Beaman's rule). Particulars: crystalline melting points around 60° C. (base) and 203° C. (hydrogen fumarate). The procedure: as §1
The glass transition temperature can be estimated as ⅔ of the melting temperature of the crystalline material (measured in Kelvin). This relationship is known as the “Beaman's rule” and applies to a wide range of both organic, inorganic, simple and polymeric materials. (Beaman, R. G. Journal of Polymer Science, 1952, 9(5): 470-472).
as §2, §3

Data set [4] can be described thus: Physical stability of amorphous solids by XRPD on storage at ambient conditions. Particulars: ambient conditions (15-35 degrees Celsius, 15-75 percent RH), 96 hours, 1, 4, 9 weeks, 5, 8, 12 months. The procedure:
The term “ambient conditions” as used herein refers to conditions with a temperature range of 15-35 degrees Celsius and a relative humidity range of 15-75 percent.
X-Ray powder diffractograms were measured on a PANalytical X′Pert PRO X-Ray Diffractometer using CuKα1 radiation (λ=1.5406 Å). The samples were measured in reflection mode in the 2θ-range 3-40° using an X'celerator detector. (See FIGS. 3, 4 and 5).
The amorphous base and the fumarate salt of compound (Ia) were analyzed using XRPD to determine the physical stability of these solid forms. The presence of a substantially amorphous solid form was confirmed by a diffuse halo XRPD pattern similar to FIG. 3, which is characteristic for a solid amorphous form.
The short-term physical stability of the amorphous solids was analyzed immediately after preparation; the samples were analyzed by XRPD for 96 hours consecutively by alternating measurements every 2 hours. The long-term stability was then assessed by storing the amorphous solids under ambient conditions and analyzing them by XRPD after 1, 4 and 9 weeks as well as 5, 8 and 12 months.

Where a name gives a salt, the structure may show the parent alone.

For the compound `[2H]c1c([2H])c([2H])c([C@@H]2C[C@@H](N3CCN(C([2H])([2H])[2H])C(C)(C)C3)c3cc(Cl)ccc32)c([2H])c1[2H]` [amorphous base of compound (Ia)], the “recrystallization upon heating above the glass transition” value in data set [1] was “do not recrystallize easily above the glass transitions”. Besides, the “actual (measured) glass transition temperature Tg” value in data set [2] is “around 5 °C”; in data set [2] (listed as amorphous base) it was “about 4 °C”. In addition, the “calculated glass transition temperature Tg” value was −51 °C in data set [3] and “about −51 °C” in data set [3] (listed as amorphous base). For the same compound, in data set [4] (listed as free base), the “physical stability of the amorphous solid (XRPD pattern)” value is recorded as “weak indication of crystallization of the free base after 5 months”.
As for `[2H]c1c([2H])c([2H])c([C@@H]2C[C@@H](N3CCN(C([2H])([2H])[2H])C(C)(C)C3)c3cc(Cl)ccc32)c([2H])c1[2H]` [amorphous hydrogen fumarate of compound (Ia)], the “recrystallization upon heating above the glass transition” value in data set [1] is reported as “do not recrystallize easily above the glass transitions”. Also, the “actual (measured) glass transition temperature Tg” value is “around 66 °C” in data set [2] and 66 °C in data set [2] (listed as amorphous hydrogen fumarate salt). Moreover, the figures for the “calculated glass transition temperature Tg” value in data set [3] and in data set [3] (listed as amorphous hydrogen fumarate salt of compound (Ia)) were 44 °C and roughly 44 °C, respectively. For the same compound, the “physical stability of the amorphous solid (XRPD pattern)” value in data set [4] was “substantially amorphous solids at all timepoints”.
